Several values for one entry are separate records, joined by “and”; a condition that tells them apart may be missing. Identical values can stand only once. Toxic doses and inconclusive results are not listed. Rule as the data show it: active = T/C of 150% or more; inactive = T/C below 125%.
System: L1210 leukemia ip in BDF1 mice, survival T/C
Assay: NCI In Vivo Anticancer Drug Screen. Data for tumor model L1210 Leukemia (intraperitoneal) in B6D2F1 (BDF1) mice
Conditions: endpoint: mean survival time, higher = longer survival
In short: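 Survival endpoint. Drug-treated group vs vehicle group, expressed as T divided by C. Tumor passaged by transplantation.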

[1] = dose: 100.0 mg/kg/injection, schedule: Q01DX009 (ip), vehicle: saline with Tween-80
[2] = dose: 200.0 mg/kg/injection, schedule: Q01DX009 (ip), vehicle: saline with Tween-80
[3] = dose: 400.0 mg/kg/injection, schedule: Q01DX009 (ip), vehicle: saline with Tween-80
[4] = dose: 100.0 mg/kg/injection, schedule: Q04DX003 (ip), vehicle: Klucel (hydroxypropylcellulose) (HPC)
[5] = dose: 200.0 mg/kg/injection, schedule: Q04DX003 (ip), vehicle: Klucel (hydroxypropylcellulose) (HPC)
[6] = dose: 75.0 mg/kg/injection, schedule: Q01DX001 (ip), vehicle: saline
[7] = dose: 100.0 mg/kg/injection, schedule: Q04DX002 (ip), vehicle: Klucel (hydroxypropylcellulose) (HPC)
[8] = dose: 200.0 mg/kg/injection, schedule: Q04DX002 (ip), vehicle: Klucel (hydroxypropylcellulose) (HPC)
[9] = dose: 100.0 mg/kg/injection, schedule: Q04DX003 (ip), vehicle: saline with Tween-80
[10] = dose: 200.0 mg/kg/injection, schedule: Q04DX003 (ip), vehicle: saline with Tween-80
[11] = dose: 400.0 mg/kg/injection, schedule: Q04DX003 (ip), vehicle: saline with Tween-80
[12] = dose: 100.0 mg/kg/injection, schedule: Q01DX009 (ip), vehicle: Klucel (hydroxypropylcellulose) (HPC)
[13] = dose: 200.0 mg/kg/injection, schedule: Q01DX009 (ip), vehicle: Klucel (hydroxypropylcellulose) (HPC)
[14] = dose: 50.0 mg/kg/injection, schedule: Q01DX009 (ip), vehicle: saline with Tween-80

Measured: T/C

O=C(O)c1cc(C(=O)O)c(C(=O)O)cc1C(=O)O
inactive: [1] 96 % of control | [2] 91 % of control | [3] 94 % of control

C=C(C)C1CCCC(Cc2cccc3c(Cl)cccc23)C1 (configuration not stated)
inactive: dose: 100.0 mg/kg/injection, schedule: Q01DX001 (ip), vehicle: gum acacia 97 % of control | dose: 200.0 mg/kg/injection, schedule: Q01DX001 (ip), vehicle: gum acacia 94 % of control | dose: 400.0 mg/kg/injection, schedule: Q01DX001 (ip), vehicle: gum acacia 99 % of control

Nc1ccc(CCCCc2c(N)nc(N)nc2N)cc1
inactive: [4] 97 % of control | [5] 93 % of control

O=C1C(=O)c2ccccc2C(O)=C1C(C1=C(O)c2ccccc2C(=O)C1=O)c1ccc(Cl)cc1
inactive: [6] 86 % of control | dose: 150.0 mg/kg/injection, schedule: Q01DX001 (ip), vehicle: saline 86 % of control | dose: 300.0 mg/kg/injection, schedule: Q01DX001 (ip), vehicle: saline 86 % of control

CC12CCC(OC3OC(CO)C(OC4OC(CO)C(O)C(O)C4O)C(O)C3O)CC1CCC1C2CCC2(C)C(C3=CC(=O)OC3)CCC12O (configuration not stated)
inactive: dose: 10.0 mg/kg/injection, schedule: Q01DX009 (ip), vehicle: saline 102 % of control | dose: 20.0 mg/kg/injection, schedule: Q01DX009 (ip), vehicle: saline 116 % of control | dose: 40.0 mg/kg/injection, schedule: Q01DX009 (ip), vehicle: saline 102 % of control

CNC(=O)Nc1cccc([N+](=O)[O-])c1OC
inactive: [7] 100 % of control | [8] 103 % of control | dose: 400.0 mg/kg/injection, schedule: Q04DX002 (ip), vehicle: Klucel (hydroxypropylcellulose) (HPC) 106 % of control

O=C(COc1ccc([N+](=O)[O-])cc1)Nc1cccnc1
inactive: [9] 96 % of control | [10] 95 % of control | [11] 96 % of control

CC1(C)N=C(N)N=C(N)N1c1ccccc1F
inactive: dose: 25.0 mg/kg/injection, schedule: Q01DX009 (ip), vehicle: saline 93 % of control | dose: 38.0 mg/kg/injection, schedule: Q01DX001 (ip), vehicle: saline 101 % of control | dose: 50.0 mg/kg/injection, schedule: Q01DX009 (ip), vehicle: saline 91 % of control | [6] 101 % of control | dose: 75.0 mg/kg/injection, schedule: Q01DX009 (ip), vehicle: saline 110 % of control

O=C(O)c1ccc(CCCCCCl)cc1
inactive: [1] 103 % of control | [2] 111 % of control

CCCCSCCOC(=O)C1C2CCC(O2)C1C(=O)O (configuration not stated)
inactive: dose: 12.5 mg/kg/injection, schedule: Q04DX003 (ip), vehicle: Klucel (hydroxypropylcellulose) (HPC) 95 % of control | dose: 25.0 mg/kg/injection, schedule: Q04DX003 (ip), vehicle: Klucel (hydroxypropylcellulose) (HPC) 96 % of control

CCOc1ccc(NC(=O)Oc2ccc(C(=O)OC)cc2)cc1
inactive: dose: 100.0 mg/kg/injection, schedule: Q01DX001 (ip), vehicle: saline with Tween-80 93 % of control | [1] 101 % of control and 103 % of control | dose: 100.0 mg/kg/injection, schedule: Q04DX002 (ip), vehicle: saline with Tween-80 103 % of control and 92 % of control | [9] 105 % of control | dose: 200.0 mg/kg/injection, schedule: Q01DX001 (ip), vehicle: saline with Tween-80 91 % of control | [2] 100 % of control and 103 % of control | dose: 200.0 mg/kg/injection, schedule: Q04DX002 (ip), vehicle: saline with Tween-80 95 % of control and 92 % of control | [10] 103 % of control | dose: 400.0 mg/kg/injection, schedule: Q01DX001 (ip), vehicle: saline with Tween-80 91 % of control | [3] 93 % of control and 94 % of control | dose: 400.0 mg/kg/injection, schedule: Q04DX002 (ip), vehicle: saline with Tween-80 103 % of control | [11] 105 % of control

CCCCCCNc1c([N+](=O)[O-])cc(C)cc1[N+](=O)[O-]
inactive: [12] 100 % of control | [4] 103 % of control | [13] 111 % of control | [5] 116 % of control | dose: 400.0 mg/kg/injection, schedule: Q01DX009 (ip), vehicle: Klucel (hydroxypropylcellulose) (HPC) 96 % of control | dose: 400.0 mg/kg/injection, schedule: Q04DX003 (ip), vehicle: Klucel (hydroxypropylcellulose) (HPC) 108 % of control

Cc1cccc(C(C)(C)CO)c1
inactive: [14] 100 % of control | [1] 96 % of control | [2] 96 % of control

CC(=O)SCC(C)SC(C)=O (configuration not stated)
inactive: dose: 12.5 mg/kg/injection, schedule: Q04DX002 (ip), vehicle: saline with Tween-80 93 % of control | dose: 25.0 mg/kg/injection, schedule: Q04DX002 (ip), vehicle: saline with Tween-80 98 % of control | dose: 50.0 mg/kg/injection, schedule: Q04DX002 (ip), vehicle: saline with Tween-80 93 % of control

CCN(CC)c1ccc(C(=C(c2ccc(N(CC)CC)cc2)c2ccc(N(CC)CC)cc2)c2ccc(N(CC)CC)cc2)cc1
inactive: dose: 50.0 mg/kg/injection, schedule: Q01DX009 (ip), vehicle: Klucel (hydroxypropylcellulose) (HPC) 88 % of control | [12] 101 % of control | [4] 90 % of control | [13] 91 % of control | [5] 101 % of control

Cc1nnc2c3ccccc3ccn12
inactive: dose: 50.0 mg/kg/injection, schedule: Q01DX001 (ip), vehicle: saline 101 % of control | dose: 100.0 mg/kg/injection, schedule: Q01DX001 (ip), vehicle: saline 101 % of control | dose: 200.0 mg/kg/injection, schedule: Q01DX001 (ip), vehicle: saline 103 % of control

O=C1N=C2C=CC=CN2C(=O)C1Cc1ccccc1 (configuration not stated)
inactive: [1] 90 % of control | [9] 98 % of control | [2] 89 % of control | [10] 94 % of control | [3] 96 % of control | [11] 99 % of control

O=C1/C(=C\c2cccc3ccccc23)COC/C1=C/c1cccc2ccccc12
inactive: dose: 100.0 mg/kg/injection, schedule: Q01DX009 (ip), vehicle: saline 93 % of control | dose: 200.0 mg/kg/injection, schedule: Q01DX009 (ip), vehicle: saline 97 % of control | dose: 400.0 mg/kg/injection, schedule: Q01DX009 (ip), vehicle: saline 98 % of control

CN(C)O
inactive: [1] 103 % of control | [2] 105 % of control | dose: 222.0 mg/kg/injection, schedule: Q01DX Z (ip), vehicle: saline 100 % of control | dose: 333.0 mg/kg/injection, schedule: Q01DX Z (ip), vehicle: saline 97 % of control | [3] 108 % of control | dose: 500.0 mg/kg/injection, schedule: Q01DX Z (ip), vehicle: saline 106 % of control

c1ccc(C2(N3CCC4(CC3)OCCO4)CCCCC2)cc1
inactive: [7] 102 % of control | [8] 105 % of control

CCN(CC)CCNc1ccc([N+](=O)[O-])cc1[N+](=O)[O-]
inactive: [14] 88 % of control | dose: 100.0 mg/kg/injection, schedule: Q01DX001 (ip), vehicle: Klucel (hydroxypropylcellulose) (HPC) 103 % of control | [1] 102 % of control | dose: 200.0 mg/kg/injection, schedule: Q01DX001 (ip), vehicle: Klucel (hydroxypropylcellulose) (HPC) 103 % of control
